{"source": "patent US20230099822A1", "about": "“MR1 LIGANDS AND PHARMACEUTICAL COMPOSITIONS FOR IMMUNOMODULATION” (UNIVERSITÄT BASEL, priority 2020, published 2023)", "key": {"[1]": {"target": "T1, MR1 surface expression on THP-1 MR1 cells (Homo sapiens, UniProt Q95460)", "T1 construct": "expressed in transfected cells; host or cells: THP-1 (ATCC TIB-202) stably expressing MR1 (THP1-MR1)", "T1 sequence (Q95460 23-341)": "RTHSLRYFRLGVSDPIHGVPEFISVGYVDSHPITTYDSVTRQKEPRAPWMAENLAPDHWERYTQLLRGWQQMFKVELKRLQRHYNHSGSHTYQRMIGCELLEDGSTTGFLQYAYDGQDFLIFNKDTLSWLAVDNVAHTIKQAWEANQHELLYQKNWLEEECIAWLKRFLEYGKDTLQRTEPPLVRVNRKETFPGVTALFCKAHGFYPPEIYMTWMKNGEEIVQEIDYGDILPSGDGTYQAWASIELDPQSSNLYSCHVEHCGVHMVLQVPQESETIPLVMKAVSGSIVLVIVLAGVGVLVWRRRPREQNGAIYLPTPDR", "T1 sequence (P61769 21-119 partner)": "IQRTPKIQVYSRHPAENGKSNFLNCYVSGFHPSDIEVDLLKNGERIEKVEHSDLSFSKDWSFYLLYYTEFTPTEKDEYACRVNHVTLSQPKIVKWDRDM", "test": "Cell surface MR1 modulation on APCs (flow cytometry, anti-MR1 mAb 26.5)", "type": "cell-based", "description": "[…] […] For each condition, net MFI was calculated subtracting isotype MFI from anti-MR1 MFI and fold change of cells treated with synthetic molecules over cells treated with vehicle was calculated."}, "MR1T cell clones [2]": {"system": "MR1T cell clones", "test": "MR1T cell activation assay with THP-1 cells incubated with compounds (cytokine ELISA)", "type": "cell-based, human", "description": "MR1T cells (5×10^4/well unless otherwise indicated) were co-cultured with the indicated APCs (10^5 cells per well unless otherwise indicated) for 18 h in 120 μL volume in triplicate.\nWhen nucleobases, nucleosides or nucleotides (all 250 μM) and synthetic compounds M3ADE, OPdA, M1G or OPdC were used to stimulate T cells, the THP-1 cells (10^5/well) were cultured 2 h with the indicated molecules or medium only, prior to T-cell addition. When a single concentration of synthetic antigens was used, 100 μM OPdA, 100 μM OPdC and 13 μM M1G were used for all clones, while 100 μM M3ADE was used for all clones except DGB129, AC1A4, AC1B76 and AVA46 for which 1 μM was used."}, "[3]": {"system": "tumor-infiltrating T cells from lung cancer biopsies", "test": "Activation of MR1-M3ADE tetramer-sorted TIL lines", "type": "cell-based, human", "conditions": "A375-MR1 cells with or without M3ADE; TCR downregulation, IFN-γ", "description": "Tissue biopsy samples derived from small cell lung tumors that were digested with media containing Accutase (Innovative Cell; Cat #AT-104), Collagenase IV 200 U/mL (Worthington; Cat #LS004189), DNAse I 0.5 mg/mL (Sigma-Aldrich Cat #D5025) and Hyaluronidase 50 mg/mL (Sigma; Cat #H6254) for 1 hour at 37° C. Digested material was passed through a […] cell strainer and erythrocytes were lysed before being frozen and stored in liquid nitrogen. After thawing, TILs were rested for 2 days prior to co-culture with A375-p2mKO-MR1 cells in a ratio of 1:1 and in the presence of 50 μM M3ADE. On day 5, human rIL-2 (5 U/mL) was added to the cultures for a further 5 days, and expansion in this manner was repeated 3 times. Cells were then stained with MR1-M3ADE tetramer, anti-CD3, anti-CD4 and anti-CD8 mAbs, and tetramer positive cells were sorted into a bulk line before functional experiments.\nThe inventors isolated TILs from non-small cell-lung-cancer biopsies from two patients and co-cultured them with A375-MR1 cells loaded with M3ADE, in order to expand MR1T cells. […] The inventors measured the extent of MR1T-cell activation via TCR downregulation, which occurred only in the presence of […] M3ADE-loaded A375-MR1 cells, and was prevented by anti-MR1 blocking mAbs (FIG. 14C, donor 840, and FIG. 14D, donor 895). […]"}, "MR1T cell clones [4]": {"system": "MR1T cell clones", "test": "MR1T cell activation assay with treated and fixed A375-MR1 cells", "type": "cell-based, human", "conditions": "6 h incubation before fixation; clones TC5A87 and DGB129 (FIG. 9C, D)"}, "MR1T cell clones [5]": {"system": "MR1T cell clones", "test": "MR1T cell activation assay with drug-treated THP-1 cells", "type": "cell-based, human", "conditions": "THP-1 cells with Doxorubicin 75 nM or Paclitaxel 5 μM and nucleosides (dAdenosine and Guanosine, both 150 μM)", "description": "MR1T cells (5×10^4/well unless otherwise indicated) were co-cultured with the indicated APCs (10^5 cells per well unless otherwise indicated) for 18 h in 120 μL volume in triplicate. In some experiments, anti-MR1 mAbs (clone 26.5, purified and endotoxin-free mouse IgG2a, (Lepore et al., 2014)) or mouse IgG2a isotype control mAbs (LEAF, Biolegend, Cat #401504) (both at 30 μg/mL) were added and incubated for 30 min at 37° C. prior to the addition of T cells.\nIn experiments with mycophenolic acid (10 μM), EHNA (25 μM), S-p-bromobenzylglutathione cyclopentyl diester (BBG, 20 μM) (all from Sigma-Aldrich), THP-1 cells (1×10^6/mL) were treated with the indicated concentrations of drugs in complete medium at 37° C. for 18 h before being washed twice with PBS, counted and used for T-cell activation. In experiments where THP-1 cells (1×10^6/mL) were treated with doxorubicin (75 nM) and paclitaxel (5 μM) (both from Sigma-Aldrich), the cells were incubated at 37° C. for 18 h before being washed twice with PBS, counted, and incubated for 2 h with vehicle or 150 μM dAdo and 150 μM guanosine (Sigma-Aldrich) prior to T-cell addition. In experiments where fixed A375-MR1 cells were used to activate MR1T cells, APCs (4×10^5/mL) were treated with apocynin (APO, 100 μM), L-glutathione reduced (GSH, 4 mM), N-acetyl cysteine (NAC, 4 mM), L-buthionine-sulfoximine (BSO, 400 μM) mercaptosuccinic acid (MSA, 3.3 μM), ML-210 (6 μM) or 1S,3R-RSL3 (RSL3, 1 μM), hydralazine hydrochloride (100 μM) or aminoguanidine hemisulfate salt (5 mM) for 18 h at 37° C. before being washed twice with PBS, fixed with glutaraldehyde, counted and used for MR1T cell stimulation.\nThe following human cytokines were assessed by ELISA using specific mAbs: GM-CSF (purified clone BVD2-23B6 and biotinylated clone BVD2-21C11, Biolegend Cat #502202 and 502304, respectively), IFN-γ (purified clone MD-1 and biotinylated clone 4S.B3, Biolegend Cat #507502 and 502504, respectively), IL-13 (purified clone JES10-5A2 and biotinylated clone SB126d, SouthernBiotech Cat #10125-01 and 15930-08, respectively)."}, "THP-1 cells": {"system": "THP-1 cells", "test": "ROS production measurement (CM-H2DCFDA)", "type": "cell-based, human", "conditions": "75 nM Doxorubicin or 5 μM Paclitaxel, 18 h (FIG. 17A)", "description": "CM-H2DCFDA (Thermo Fisher Scientific) was used to assess ROS production in cell upon cell treatment with Doxorubicin and Paclitaxel. THP-1 cells ([…]) were labelled with 10 μM CM-H2DCFDA for 30 min at 37° C. in the dark, then washed with PBS and resuspended in complete medium. 10^5 cells were seeded per well and treated with 75 nM Doxorubicin, 5 μM Paclitaxel or vehicle for 18 h at 37° C. Phorbol 12-myristate 13-acetate (PMA, 50 ng/mL) was used as positive control."}, "MAIT clone MRC25": {"system": "MAIT clone MRC25", "test": "Control stimulation of MAIT clone MRC25", "type": "cell-based, human", "conditions": "drug-treated APCs; paclitaxel in presence of nucleosides (FIG. 16C-D)", "description": "In some experiments, MAIT cells were stimulated by APCs pulsed 3 h with 5-OP-RU as previously described or with 30 μM 6,7-dimethyl-8-ribityllumazine (Cayman Chemical Cat #23370)."}, "[6]": {"system": "MR1T cell clones AVA34, AC1A4 and MAIT clone MRC25", "test": "MR1 tetramer staining of T cell clones", "type": "binding, human", "description": "Correct protein conformation was confirmed by performing a plate-bound activation of the MR1T cell clone DGB129. Refolded MR1-compound protein was serially diluted in PBS (1.5-100 μg/mL) and added to a high-protein-binding plate (Nunc, Cat #439454) for 2 h at 37° C. The wells were washed thoroughly with PBS before addition of 5×10^4 cells that were left overnight at 37° C. IL-13 ELISA was then used as an activation readout. The functional monomer was then biotinylated using BirA-500 biotinylation kit (Avidity, Cat #Bulk BirA) overnight at 4° C. Excess biotin was removed using S75 10/30 (GE Healthcare, 29148721) gel filtration before tetramerization with phycoerythrin (PE) streptavidin (Prozyme, Cat #P JRS25) in a 4:1 molar ratio. As control MR1 tetramers, human MR1-5-OP-RU and human MR1-6-FP labelled with APC, PE or AlexaFluor488 were used (The MR1 tetramer technology was developed jointly by Dr. James McCluskey, Dr. Jamie Rossjohn, and Dr. David Fairlie, and the material was produced by the NIH Tetramer Core Facility as permitted to be distributed by the University of Melbourne). […]\nSamples were acquired on LSR Fortessa flow cytometer with the FACS Diva software (Becton Dickinson). […] When PBMCs were analyzed, CD14^+ and CD19^+ cells were excluded by staining with fluorescent antibodies detected in the same channel as the Live/Dead staining. All data was analyzed using FlowJo (LLC)."}, "MR1T cell clones [7]": {"system": "MR1T cell clones", "test": "Activation assay with plate-bound soluble MR1", "type": "cell-based, human", "conditions": "IL-13 (FIG. 4)", "description": "Recombinant human P2m-MR1-Fc was produced in CHO-K1 cells as previously described (Lepore et al., 2017) and 4 μg/mL were coated onto 96 wells plates (Nunc, Cat #439454) for 18 h at 4° C. Plate-bound MR1 was then washed twice with wash buffer (150 mM NaCl, 20 mM Tris and 2% Glycerol, pH 5.6) to remove bound antigens. Then, the synthetic antigens (M3ADE, OPdA, M1G and OPdC) were added at the indicated concentrations and incubated for 6 h at room temperature (RT). Unbound antigens were washed twice with PBS before the addition of excess PBS. In some experiments, bacteria-produced and refolded MR1-M3ADE protein was serially diluted in PBS and added to a high protein binding plate (Nunc, Cat #439454) for 2 h at 37° C. then washed twice and used in the stimulation assay. Indicated MR1T cell clones ([…]) were added and supernatants were collected after 18 h. Released cytokines were detected by ELISA. Recombinant human P2m-MR1-Fc was produced in CHO-K1 cells as previously described and 4 μg/mL were coated onto 96 wells plates. Antigens produced by CHO-K1 cells were removed by washing twice with wash buffer (150 mM NaCl, 20 mM Tris and 2% Glycerol, pH 5.6). […]\nCorrect protein conformation was confirmed by performing a plate-bound activation of the MR1T cell clone DGB129. […] IL-13 ELISA was then used as an activation readout. […]"}}, "note": "Several values for one entry are separate records, joined by “and”; a condition that tells them apart may be missing. Equal entries are not always repeated. Entries after “also recorded” stand apart in the source; their conditions may differ."}
{"compound": "O=CC1=COC2CC1C(C=O)=CN2c1ncnc2[nH]cnc12", "note": "(stereo not shown) [Cmpd 13, 8-(9H-purin-6-yl)-2-oxa-8-azabicyclo[3.3.1]nona-3,6-diene-4,6-dicarbaldehyde]", "values": [{"measurement": "MRI upregulation", "setting": "[1]; THP-1 MR1 cells, 3 h at 37° C., 3 doses each", "value": "YES"}, {"measurement": "cell surface MR1 upregulation on APCs (in words)", "setting": "[1]; pulsed APC / THP1-MR1 cells", "value": "most efficient in increasing MR1 surface expression"}, {"measurement": "Reactive T cells isolated", "setting": "MR1T cell clones [2]", "value": "YES"}, {"measurement": "activation of MR1T clone AC1A4 by adduct", "setting": "MR1T cell clones [2]", "value": "activated"}, {"measurement": "potency among the synthesized adducts", "setting": "MR1T cell clones [2]", "value": "highest potency"}, {"measurement": "response to THP-1 cells when adduct added", "setting": "MR1T cell clones [2]; M1G or M3ADE added to clones QY1A16 and QY1C3, respectively", "value": "significant decreased response"}, {"measurement": "activation of MR1T clone AVA34 by compound", "setting": "MR1T cell clones [2]; THP-1 / MR1+ APCs loaded with compound, listed as M3ADE", "value": "specifically activated; also recorded: reacted"}, {"measurement": "number of MR1T clones significantly stimulated", "setting": "MR1T cell clones [2]; fourteen randomly selected MR1T clones, THP-1 cells, IFN-γ (FIG. 12B), listed as M3ADE", "value": "six and 6/14"}, {"measurement": "IL-13 release by AVA34 cells", "setting": "MR1T cell clones [2]; toward THP-1 cells in the presence of compound (FIG. 5b)", "value": "IL-13 release"}, {"measurement": "reactivity of tetramer-positive TIL cells, donor 895", "setting": "[3]", "value": "reacted only to M3ADE-loaded A375-MR1 cells"}, {"measurement": "reactivity of tetramer-positive TIL cells, donor #840", "setting": "[3]", "value": "irrespective of the presence of M3ADE"}]}
{"compound": "O=CC[C@@H](O)[C@H](O)[C@H](O)CO", "note": "[deoxyglucose, 2-deoxy-D-Glucose]", "values": [{"measurement": "MR1T-cell stimulatory capacity of pulsed and fixed A375-MR1 cells", "setting": "MR1T cell clones [4]", "value": "abolished"}]}
{"compound": "COc1cccc2c1C(=O)c1c(O)c3c(c(O)c1C2=O)C[C@@](O)(C(=O)CO)C[C@@H]3O[C@H]1C[C@H](N)[C@H](O)[C@H](C)O1", "note": "[doxorubicin, Doxorubicin]", "values": [{"measurement": "activation of MR1T-cell clones TC5A87, DGB129, MCA3C3", "setting": "MR1T cell clones [5]", "value": "promoted activation of all three MR1T-cell clones"}, {"measurement": "ROS accumulation", "setting": "THP-1 cells", "value": "significantly increased ROS accumulation"}]}
{"compound": "CC(=O)O[C@H]1C(=O)[C@@]2(C)[C@H]([C@H](OC(=O)c3ccccc3)[C@]3(O)C[C@H](OC(=O)[C@H](O)[C@@H](NC(=O)c4ccccc4)c4ccccc4)C(C)=C1C3(C)C)[C@]1(OC(C)=O)CO[C@@H]1C[C@@H]2O", "note": "[paclitaxel, Paclitaxel]", "values": [{"measurement": "activation of MR1T-cell clones TC5A87, DGB129, MCA3C3", "setting": "MR1T cell clones [5]", "value": "promoted activation of all three MR1T-cell clones"}, {"measurement": "ROS accumulation", "setting": "THP-1 cells", "value": "significantly increased ROS accumulation"}, {"measurement": "MAIT-cell response", "setting": "MAIT clone MRC25", "value": "little but significant stimulation"}]}
{"compound": "MR1-6-FP tetramers: control MR1 tetramer, human MR1-6-FP, produced by the NIH Tetramer Core Facility", "values": [{"measurement": "tetramer staining of MR1T clone AVA34", "setting": "[6]", "value": "not"}]}
{"compound": "MR1-M3ADE monomers: human recombinant soluble MR1 refolded in vitro in the presence of M3ADE", "values": [{"measurement": "stimulation of clone DGB129 by refolded MR1-M3ADE monomers", "setting": "MR1T cell clones [7]", "value": "stimulated"}]}
